These results are taken from PMC9948199 (ACS Omega, 2023).

Bounds are passed on as bounds.

Data set [1] in a line: Blood, tumor and tissue concentration after last dose in the tumor model. Format: in vivo, Balb/c nude mice. Particulars: for concentration at 2 h / concentration at 8 h: female, Balb/c nude (Nu/Nu), mouse, ip; for concentration at 2 h / concentration at 8 h / concentration of MRTX1133 in kidney: 10 mg/kg; for concentration of MRTX1133 in heart / concentration of MRTX1133 in intestine / concentration of MRTX1133 in liver / concentration of MRTX1133 in lung / concentration of MRTX1133 in spleen / concentration of MRTX1133 in stomach / concentration of MRTX1133 in tumor / concentration of MRTX1133 in kidney: from MRTX1133 IP 10 mpk.

For data set [2], the system named is AsPC-1 (pancreatic cancer cell line bearing the KRAS^G12D mutation) xenograft. Put plainly: AsPC-1 xenograft tumor mouse model efficacy. Format: in vivo, Balb/c nude mice. To be noted: 16 days.
A short description of data set [3]: Tolerability and body weight in mice. Format: in vivo. Particulars: oral, 300 mpk.
A short description of another data set: Pharmacokinetics in mice. Particulars: intravenous, 3 mpk. Format: in vivo.
Data set [4] can be described thus: Stability in mouse liver microsomes. Format: in vitro ADME. Particulars: pH 7.4. A general note: Liver microsomes are a subcellular fraction often used to study metabolism.
A short description of data set [5]: Caco-2 permeability assay. Format: in vitro ADME. To be noted: human, Table 1. On the technique in general: Passage across Caco-2 layers is used to estimate intestinal permeability.
Setting [6] is: following IP administration of MRTX1133 (10 mpk), time not given.

With `C#Cc1c(F)ccc2cc(O)cc(-c3ncc4c(N5C[C@H]6CC[C@@H](C5)N6C(=O)OC(C)OC(=O)CCC)nc(OC[C@@]56CCCN5C[C@H](F)C6)nc4c3F)c12` (stereo partly drawn) [Compound 9, 1-(Butyryloxy)ethyl (1R,5S)-3-(7-(8-ethynyl-7-fluoro-3-hydroxynaphthalen-1-yl)-8-fluoro-2-(((2R,7aS)-2-fluorotetrahydro-1H-pyrrolizin-7a(5H)-yl)methoxy)pyrido[4,3-d]pyrimidin-4-yl)-3,8-diazabicyclo[3.2.1]octane-8-carboxylate], the “blood concentration of the named Cpd” value in data set [1] (8 h post last oral dose of prodrug 9 (high dose, 126 mpk bid) in the tumor model) is recorded as “BLQ”. Further, the “tumor growth inhibition (TGI)” value in data set [2] (high dose 126 mpk (equimolar to 100 mpk MRTX1133) p.o. bid) amounted to 54%; in data set [2] (low dose 37.8 mpk (equimolar to 30 mpk MRTX1133) p.o. bid), 20%. The tolerability in mice entry in data set [3] (conventional vehicle) is “intolerable”; in data set [3] (lipid-based formulation) it was “well-tolerated”.
For orientation: CLint scaled means the capacity of the preparation to metabolise the compound, expressed as a volume cleared per time. The term half-life denotes how long it takes for the measured level to halve. A high value points to slow loss. As usually defined, the Papp A→B is how fast a substance crosses the layer from the apical side. A lower Papp A→B goes with poor permeation. Broadly, the Papp B→A is the apparent permeability from the basolateral to the apical side of a cell layer. The efflux ratio is the permeability from basolateral to apical divided by that in the opposite direction, in the common usage. For the compound `C#Cc1c(F)ccc2cc(O)cc(-c3ncc4c(N5CC6CCC(C5)N6)nc(OC[C@@]56CCCN5C[C@H](F)C6)nc4c3F)c12` [MRTX1133], the “AUC0–24 h of MRTX1133” value in “Pharmacokinetics in mice” came out at 2253 ng·h/mL. In data set [1] (brain), the concentration at 2 h came to 131 ng/g and the concentration at 8 h was determined as 139 ng/g. Moreover, in data set [1] (whole blood), the concentration at 2 h stood at 654 ng/mL and the concentration at 8 h was 330 ng/mL. Also, in data set [1] (setting [6]), the “concentration of MRTX1133 in the liver, spleen, and lung” value is reported as ~60 000 ng/g; the “concentration of MRTX1133 in the stomach, intestine, and heart” value is given as ~20 000 ng/g. In addition, in data set [1] (2 h post last dose), the “concentration of MRTX1133 in heart” value is given as 18 330 ng/g, the “concentration of MRTX1133 in intestine” value was 24 388 ng/g, the “concentration of MRTX1133 in liver” value is listed as 63 525 ng/g and the “concentration of MRTX1133 in lung” value is reported as 53 040 ng/g. Moreover, in data set [1] (2 h post last dose), the concentration of MRTX1133 in spleen stood at 58400 ng/g, the “concentration of MRTX1133 in stomach” value is recorded as 26 325 ng/g, the “concentration of MRTX1133 in tumor” value is 11 870 ng/g and the “concentration of MRTX1133 in kidney” value is reported as 285 150 ng/g. For the same compound, in data set [1] (8 h post last dose), the “concentration of MRTX1133 in heart” value is 15 795 ng/g, the “concentration of MRTX1133 in intestine” value is reported as 18 213 ng/g, the “concentration of MRTX1133 in liver” value is reported as 62 950 ng/g and the “concentration of MRTX1133 in lung” value is 57 300 ng/g. For the same compound, in data set [1] (8 h post last dose), the concentration of MRTX1133 in spleen was 54000 ng/g, the “concentration of MRTX1133 in stomach” value is recorded as 27 775 ng/g, the “concentration of MRTX1133 in tumor” value is given as 14 300 ng/g and the “concentration of MRTX1133 in kidney” value was 333 900 ng/g. Also, the antitumor effect result in data set [2] (100 mpk p.o. bid) was “no apparent antitumor effect”. In data set [4], this compound came in with a CLint scaled at 1 μM of 143 mL/min/kg and a half-life at 1 μM of 38.5 min. In data set [5] (Caco-2, Caco-2 permeability Papp A – B), this compound yielded a Papp A→B of less than 0.48 ×10⁻⁶ cm/s. For the same compound, in data set [5] (Caco-2, Caco-2 permeability Papp B – A), the Papp B→A stood at 8.05 ×10⁻⁶ cm/s. For the same compound, the efflux ratio in data set [5] (Caco-2, Caco-2 permeability efflux ratio) is more than 16.8.
